Test results taken from ChEMBL document CHEMBL1629456, “ApoA-I mimetic peptides promote pre-β HDL formation in vivo causing remodeling of HDL and triglyceride accumulation at higher dose” (Bioorg Med Chem, 2010).

These molecules were tested against Phospholipid-transporting ATPase ABCA1 (Mus musculus, UniProt P41233) (assay: Induction of ABCA1-mediated [3H]cholesterol efflux in mouse RAW 264.7 macrophages after 24 hrs).
Chain of Phospholipid-transporting ATPase ABCA1 (P41233 whole entry): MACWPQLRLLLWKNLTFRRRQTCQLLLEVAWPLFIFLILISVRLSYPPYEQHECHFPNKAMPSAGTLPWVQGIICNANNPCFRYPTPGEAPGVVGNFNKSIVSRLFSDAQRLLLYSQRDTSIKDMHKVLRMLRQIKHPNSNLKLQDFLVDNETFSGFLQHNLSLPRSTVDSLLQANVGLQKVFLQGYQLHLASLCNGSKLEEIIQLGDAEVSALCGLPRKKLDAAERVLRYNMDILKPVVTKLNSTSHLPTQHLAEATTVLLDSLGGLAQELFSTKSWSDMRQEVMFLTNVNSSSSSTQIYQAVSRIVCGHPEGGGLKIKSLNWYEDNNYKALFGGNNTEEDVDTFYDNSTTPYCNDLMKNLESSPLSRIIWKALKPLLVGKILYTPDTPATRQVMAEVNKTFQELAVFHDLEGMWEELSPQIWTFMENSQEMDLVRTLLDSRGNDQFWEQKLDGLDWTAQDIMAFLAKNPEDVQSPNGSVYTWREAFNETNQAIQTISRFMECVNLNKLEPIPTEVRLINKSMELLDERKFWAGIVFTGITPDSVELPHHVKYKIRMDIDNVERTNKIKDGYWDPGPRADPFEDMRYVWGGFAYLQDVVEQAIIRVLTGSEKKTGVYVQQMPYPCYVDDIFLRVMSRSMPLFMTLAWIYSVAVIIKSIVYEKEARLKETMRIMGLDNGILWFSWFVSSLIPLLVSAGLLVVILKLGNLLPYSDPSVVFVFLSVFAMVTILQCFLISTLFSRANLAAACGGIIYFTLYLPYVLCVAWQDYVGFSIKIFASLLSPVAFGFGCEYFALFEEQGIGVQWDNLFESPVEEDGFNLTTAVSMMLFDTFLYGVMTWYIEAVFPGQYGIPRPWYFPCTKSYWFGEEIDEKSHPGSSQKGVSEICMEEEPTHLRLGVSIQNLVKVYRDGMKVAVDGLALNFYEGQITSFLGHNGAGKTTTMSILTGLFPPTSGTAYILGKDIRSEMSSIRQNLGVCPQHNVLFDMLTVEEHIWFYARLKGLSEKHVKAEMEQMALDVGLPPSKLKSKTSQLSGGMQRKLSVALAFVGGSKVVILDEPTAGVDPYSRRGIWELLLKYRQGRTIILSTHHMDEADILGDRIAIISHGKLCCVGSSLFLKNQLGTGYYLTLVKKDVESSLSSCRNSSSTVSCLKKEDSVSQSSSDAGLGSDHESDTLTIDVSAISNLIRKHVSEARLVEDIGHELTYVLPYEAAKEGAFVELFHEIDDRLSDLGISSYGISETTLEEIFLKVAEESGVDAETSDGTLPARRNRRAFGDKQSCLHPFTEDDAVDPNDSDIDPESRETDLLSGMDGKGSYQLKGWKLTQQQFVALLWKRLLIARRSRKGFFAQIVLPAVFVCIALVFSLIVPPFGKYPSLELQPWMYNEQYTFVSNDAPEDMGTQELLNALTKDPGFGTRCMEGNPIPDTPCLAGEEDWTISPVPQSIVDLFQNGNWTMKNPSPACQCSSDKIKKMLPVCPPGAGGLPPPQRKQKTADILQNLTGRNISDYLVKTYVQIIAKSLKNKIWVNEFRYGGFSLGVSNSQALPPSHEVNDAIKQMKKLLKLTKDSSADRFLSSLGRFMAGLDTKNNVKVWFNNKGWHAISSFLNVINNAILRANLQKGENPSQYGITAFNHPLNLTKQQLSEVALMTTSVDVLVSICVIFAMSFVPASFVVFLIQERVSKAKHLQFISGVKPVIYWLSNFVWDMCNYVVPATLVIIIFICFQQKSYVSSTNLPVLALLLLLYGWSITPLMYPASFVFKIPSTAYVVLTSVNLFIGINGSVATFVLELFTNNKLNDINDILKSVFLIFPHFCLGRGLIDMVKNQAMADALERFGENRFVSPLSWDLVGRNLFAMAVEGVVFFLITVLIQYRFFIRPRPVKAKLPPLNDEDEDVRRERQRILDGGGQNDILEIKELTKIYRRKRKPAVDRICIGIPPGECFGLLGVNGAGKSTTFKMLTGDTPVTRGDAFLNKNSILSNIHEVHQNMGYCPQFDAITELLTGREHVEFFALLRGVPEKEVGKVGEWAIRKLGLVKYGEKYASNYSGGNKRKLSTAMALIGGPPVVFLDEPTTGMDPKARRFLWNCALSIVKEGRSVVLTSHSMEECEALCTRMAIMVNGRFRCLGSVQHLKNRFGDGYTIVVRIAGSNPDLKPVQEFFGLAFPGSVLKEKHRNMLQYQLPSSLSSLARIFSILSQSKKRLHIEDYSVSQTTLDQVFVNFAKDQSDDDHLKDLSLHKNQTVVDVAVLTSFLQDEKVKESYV
With `C=CCCCCC[C@H](NC(=O)[C@H](CCC(N)=O)NC(=O)[C@H](CCCCN)NC(=O)[C@H](CC(C)C)NC(=O)[C@H](C)NC(=O)[C@H](CCC(=O)O)NC(=O)[C@H](CC(C)C)NC(=O)[C@H](CCC(=O)O)NC(=O)[C@H](CCC(=O)O)NC(=O)[C@H](CC(N)=O)NC(=O)[C@H](CC(C)C)NC(=O)[C@H](CCCCN)NC(=O)[C@H](CCC(=O)O)NC(=O)[C@H](CCCNC(=N)N)NC(=O)[C@H](Cc1ccccc1)NC(=O)[C@H](CCC(=O)O)NC(=O)[C@H](CC(=O)O)NC(=O)[C@H](CC(C)C)NC(=O)[C@@H](NC(=O)[C@@H]1CCCN1C(C)=O)C(C)C)C(=O)N[C@@H](CC(C)C)C(=O)N[C@@H](CCCCN)C(N)=O` the EC50 was over 100 µM. With `C=CCCCCC[C@@H](NC(=O)[C@@H]1CCCN1C(C)=O)C(=O)N[C@@H](CC(C)C)C(=O)N[C@@H](CC(=O)O)C(=O)N[C@@H](CCC(=O)O)C(=O)N[C@@H](Cc1ccccc1)C(=O)N[C@@H](CCCNC(=N)N)C(=O)N[C@@H](CCC(=O)O)C(=O)N[C@@H](CCCCN)C(=O)N[C@@H](CC(C)C)C(=O)N[C@@H](CC(N)=O)C(=O)N[C@@H](CCC(=O)O)C(=O)N[C@@H](CCC(=O)O)C(=O)N[C@@H](CC(C)C)C(=O)N[C@@H](CCC(=O)O)C(=O)N[C@@H](C)C(=O)N[C@@H](CC(C)C)C(=O)N[C@@H](CCCCN)C(=O)N[C@@H](CCC(N)=O)C(=O)N[C@@H](CCCCN)C(=O)N[C@@H](CC(C)C)C(=O)N[C@@H](CCCCN)C(N)=O` the EC50 was over 100 µM. `C=CCCCCC[C@@H](NC(=O)[C@H](CCC(=O)O)NC(=O)[C@H](CC(=O)O)NC(=O)[C@H](CC(C)C)NC(=O)[C@@H](NC(=O)[C@@H]1CCCN1C(C)=O)C(C)C)C(=O)N[C@@H](CCCNC(=N)N)C(=O)N[C@@H](CCC(=O)O)C(=O)N[C@@H](CCCCN)C(=O)N[C@@H](CC(C)C)C(=O)N[C@@H](CC(N)=O)C(=O)N[C@@H](CCC(=O)O)C(=O)N[C@@H](CCC(=O)O)C(=O)N[C@@H](CC(C)C)C(=O)N[C@@H](CCC(=O)O)C(=O)N[C@@H](C)C(=O)N[C@@H](CC(C)C)C(=O)N[C@@H](CCCCN)C(=O)N[C@@H](CCC(N)=O)C(=O)N[C@@H](CCCCN)C(=O)N[C@@H](CC(C)C)C(=O)N[C@@H](CCCCN)C(N)=O` showed an EC50 of over 100 µM. In the case of `C=CCCCCC[C@H](NC(=O)[C@H](C)NC(=O)[C@H](CCC(=O)O)NC(=O)[C@H](CC(C)C)NC(=O)[C@H](CCC(=O)O)NC(=O)[C@H](CCC(=O)O)NC(=O)[C@H](CC(N)=O)NC(=O)[C@H](CC(C)C)NC(=O)[C@H](CCCCN)NC(=O)[C@H](CCC(=O)O)NC(=O)[C@H](CCCNC(=N)N)NC(=O)[C@H](Cc1ccccc1)NC(=O)[C@H](CCC(=O)O)NC(=O)[C@H](CC(=O)O)NC(=O)[C@H](CC(C)C)NC(=O)[C@@H](NC(=O)[C@@H]1CCCN1C(C)=O)C(C)C)C(=O)N[C@@H](CCCCN)C(=O)N[C@@H](CCC(N)=O)C(=O)N[C@@H](CCCCN)C(=O)N[C@@H](CC(C)C)C(=O)N[C@@H](CCCCN)C(N)=O`, the EC50 is reported as over 100 µM. Work on `C=CCCCC[C@@H](NC(=O)[C@H](CCC(=O)O)NC(=O)[C@H](CCC(=O)O)NC(=O)[C@H](CC(N)=O)NC(=O)[C@H](CC(C)C)NC(=O)[C@H](CCCCN)NC(=O)[C@H](CCC(=O)O)NC(=O)[C@H](CCCN=C(N)N)NC(=O)[C@H](Cc1ccccc1)NC(=O)[C@H](CCC(=O)O)NC(=O)[C@H](CC(=O)O)NC(=O)[C@H](CC(C)C)NC(=O)[C@@H](NC(=O)[C@@H]1CCCN1C(C)=O)C(C)C)C(=O)N[C@@H](CCC(=O)O)C(=O)N[C@@H](C)C(=O)N[C@@H](CC(C)C)C(=O)N[C@@H](CCCCN)C(=O)N[C@@H](CCC(N)=O)C(=O)N[C@@H](CCCCN)C(=O)N[C@@H](CC(C)C)C(=O)N[C@@H](CCCCN)C(N)=O` yielded an EC50 of over 100 µM. Work on `C=CCCCC[C@@H](NC(=O)[C@H](C)NC(=O)[C@H](CCC(=O)O)NC(=O)[C@H](CC(C)C)NC(=O)[C@H](CCC(=O)O)NC(=O)[C@H](CCC(=O)O)NC(=O)[C@H](CC(N)=O)NC(=O)[C@H](CC(C)C)NC(=O)[C@H](CCCCN)NC(=O)[C@H](CCC(=O)O)NC(=O)[C@H](CCCNC(=N)N)NC(=O)[C@H](Cc1ccccc1)NC(=O)[C@H](CCC(=O)O)NC(=O)[C@H](CC(=O)O)NC(=O)[C@H](CC(C)C)NC(=O)[C@@H](NC(=O)[C@@H]1CCCN1C(C)=O)C(C)C)C(=O)N[C@@H](CCCCN)C(=O)N[C@@H](CCC(N)=O)C(=O)N[C@@H](CCCCN)C(=O)N[C@@H](CC(C)C)C(=O)N[C@@H](CCCCN)C(N)=O` yielded an EC50 of over 100 µM. Molecule `C=CCCCC[C@@H](NC(=O)[C@H](CCC(N)=O)NC(=O)[C@H](CCCCN)NC(=O)[C@H](CC(C)C)NC(=O)[C@H](C)NC(=O)[C@H](CCC(=O)O)NC(=O)[C@H](CC(C)C)NC(=O)[C@H](CCC(=O)O)NC(=O)[C@H](CCC(=O)O)NC(=O)[C@H](CC(N)=O)NC(=O)[C@H](CC(C)C)NC(=O)[C@H](CCCCN)NC(=O)[C@H](CCC(=O)O)NC(=O)[C@H](CCCNC(=N)N)NC(=O)[C@H](Cc1ccccc1)NC(=O)[C@H](CCC(=O)O)NC(=O)[C@H](CC(=O)O)NC(=O)[C@H](CC(C)C)NC(=O)[C@@H](NC(=O)[C@@H]1CCCN1C(C)=O)C(C)C)C(=O)N[C@@H](CC(C)C)C(=O)N[C@@H](CCCCN)C(N)=O` has an EC50 of over 100 µM. Molecule `C=CCCCC[C@@H](NC(=O)[C@H](CCCCN)NC(=O)[C@H](CCC(N)=O)NC(=O)[C@H](CCCCN)NC(=O)[C@H](CC(C)C)NC(=O)[C@H](C)NC(=O)[C@H](CCC(=O)O)NC(=O)[C@H](CC(C)C)NC(=O)[C@H](CCC(=O)O)NC(=O)[C@H](CCC(=O)O)NC(=O)[C@H](CC(N)=O)NC(=O)[C@H](CC(C)C)NC(=O)[C@H](CCCCN)NC(=O)[C@H](CCC(=O)O)NC(=O)[C@H](CCCNC(=N)N)NC(=O)[C@H](Cc1ccccc1)NC(=O)[C@H](CCC(=O)O)NC(=O)[C@H](CC(=O)O)NC(=O)[C@H](CC(C)C)NC(=O)[C@@H](NC(=O)[C@@H]1CCCN1C(C)=O)C(C)C)C(=O)N[C@@H](CCCCN)C(N)=O` has an EC50 of over 100 µM. Molecule `C=CCCC[C@@H](NC(=O)[C@H](CCC(=O)O)NC(=O)[C@H](CC(=O)O)NC(=O)[C@H](CC(C)C)NC(=O)[C@@H](NC(=O)[C@@H]1CCCN1C(C)=O)C(C)C)C(=O)N[C@@H](CCCNC(=N)N)C(=O)N[C@@H](CCC(=O)O)C(=O)N[C@@H](CCCCN)C(=O)N[C@@H](CC(C)C)C(=O)N[C@@H](CC(N)=O)C(=O)N[C@@H](CCC(=O)O)C(=O)N[C@@H](CCC(=O)O)C(=O)N[C@@H](CC(C)C)C(=O)N[C@@H](CCC(=O)O)C(=O)N[C@@H](C)C(=O)N[C@@H](CC(C)C)C(=O)N[C@@H](CCCCN)C(=O)N[C@@H](CCC(N)=O)C(=O)N[C@@H](CCCCN)C(=O)N[C@@H](CC(C)C)C(=O)N[C@@H](CCCCN)C(N)=O` has an EC50 of over 100 µM. `C=CCCC[C@@H](NC(=O)[C@H](CCC(=O)O)NC(=O)[C@H](CC(N)=O)NC(=O)[C@H](CC(C)C)NC(=O)[C@H](CCCCN)NC(=O)[C@H](CCC(=O)O)NC(=O)[C@H](CCCNC(=N)N)NC(=O)[C@H](Cc1ccccc1)NC(=O)[C@H](CCC(=O)O)NC(=O)[C@H](CC(=O)O)NC(=O)[C@H](CC(C)C)NC(=O)[C@@H](NC(=O)[C@@H]1CCCN1C(C)=O)C(C)C)C(=O)N[C@@H](CC(C)C)C(=O)N[C@@H](CCC(=O)O)C(=O)N[C@@H](C)C(=O)N[C@@H](CC(C)C)C(=O)N[C@@H](CCCCN)C(=O)N[C@@H](CCC(N)=O)C(=O)N[C@@H](CCCCN)C(=O)N[C@@H](CC(C)C)C(=O)N[C@@H](CCCCN)C(N)=O` was tested, and the EC50 was over 100 µM. `C=CCCCCC[C@H](NC(=O)[C@H](CCC(=O)O)NC(=O)[C@H](CC(=O)O)NC(=O)[C@H](CC(C)C)NC(=O)[C@@H](NC(=O)[C@@H]1CCCN1C(C)=O)C(C)C)C(=O)N[C@@H](CCCNC(=N)N)C(=O)N[C@@H](CCC(=O)O)C(=O)N[C@@H](CCCCN)C(=O)N[C@@H](CC(C)C)C(=O)N[C@@H](CC(N)=O)C(=O)N[C@@H](CCC(=O)O)C(=O)N[C@@H](CCC(=O)O)C(=O)N[C@@H](CC(C)C)C(=O)N[C@@H](CCC(=O)O)C(=O)N[C@@H](C)C(=O)N[C@@H](CC(C)C)C(=O)N[C@@H](CCCCN)C(=O)N[C@@H](CCC(N)=O)C(=O)N[C@@H](CCCCN)C(=O)N[C@@H](CC(C)C)C(=O)N[C@@H](CCCCN)C(N)=O` gave an EC50 of over 100 µM. Molecule `C=CCCCCC[C@H](NC(=O)[C@H](CCC(=O)O)NC(=O)[C@H](CCCN=C(N)N)NC(=O)[C@H](Cc1ccccc1)NC(=O)[C@H](CCC(=O)O)NC(=O)[C@H](CC(=O)O)NC(=O)[C@H](CC(C)C)NC(=O)[C@@H](NC(=O)[C@@H]1CCCN1C(C)=O)C(C)C)C(=O)N[C@@H](CC(C)C)C(=O)N[C@@H](CC(N)=O)C(=O)N[C@@H](CCC(=O)O)C(=O)N[C@@H](CCC(=O)O)C(=O)N[C@@H](CC(C)C)C(=O)N[C@@H](CCC(=O)O)C(=O)N[C@@H](C)C(=O)N[C@@H](CC(C)C)C(=O)N[C@@H](CCCCN)C(=O)N[C@@H](CCC(N)=O)C(=O)N[C@@H](CCCCN)C(=O)N[C@@H](CC(C)C)C(=O)N[C@@H](CCCCN)C(N)=O` has an EC50 of over 100 µM. For `C=CCCCCC[C@H](NC(=O)[C@H](CCCCN)NC(=O)[C@H](CCC(=O)O)NC(=O)[C@H](CCCNC(=N)N)NC(=O)[C@H](Cc1ccccc1)NC(=O)[C@H](CCC(=O)O)NC(=O)[C@H](CC(=O)O)NC(=O)[C@H](CC(C)C)NC(=O)[C@@H](NC(=O)[C@@H]1CCCN1C(C)=O)C(C)C)C(=O)N[C@@H](CC(N)=O)C(=O)N[C@@H](CCC(=O)O)C(=O)N[C@@H](CCC(=O)O)C(=O)N[C@@H](CC(C)C)C(=O)N[C@@H](CCC(=O)O)C(=O)N[C@@H](C)C(=O)N[C@@H](CC(C)C)C(=O)N[C@@H](CCCCN)C(=O)N[C@@H](CCC(N)=O)C(=O)N[C@@H](CCCCN)C(=O)N[C@@H](CC(C)C)C(=O)N[C@@H](CCCCN)C(N)=O`, the EC50 was over 100 µM. `C=CCCCCC[C@H](NC(=O)[C@H](CCC(=O)O)NC(=O)[C@H](CCC(=O)O)NC(=O)[C@H](CC(N)=O)NC(=O)[C@H](CC(C)C)NC(=O)[C@H](CCCCN)NC(=O)[C@H](CCC(=O)O)NC(=O)[C@H](CCCNC(=N)N)NC(=O)[C@H](Cc1ccccc1)NC(=O)[C@H](CCC(=O)O)NC(=O)[C@H](CC(=O)O)NC(=O)[C@H](CC(C)C)NC(=O)[C@@H](NC(=O)[C@@H]1CCCN1C(C)=O)C(C)C)C(=O)N[C@@H](CCC(=O)O)C(=O)N[C@@H](C)C(=O)N[C@@H](CC(C)C)C(=O)N[C@@H](CCCCN)C(=O)N[C@@H](CCC(N)=O)C(=O)N[C@@H](CCCCN)C(=O)N[C@@H](CC(C)C)C(=O)N[C@@H](CCCCN)C(N)=O` showed an EC50 of over 100 µM.
